1 molecule from ChEMBL document CHEMBL4152230, “Discovery of N-{3-[(ethanimidoylamino)methyl]benzyl}-l-prolinamide dihydrochloride: A new potent and selective inhibitor of the inducible nitric oxide synthase as a promising agent for the therapy of malignant glioma” (Eur J Med Chem, 2018) can be followed below.

Each structure is given as a SMILES string. pIC50: −log10 of the molar value. Active and inactive are the calls of the source.

The term pIC50 denotes the IC50 on a negative log10 scale, so that one unit is a factor of ten. In general, half-life refers to the time needed for the level to fall by half in the phase considered. Read a high half-life as slow loss.

In one series the target is Nitric oxide synthase 1 (Rattus norvegicus, UniProt P29476). Kind of series: Inhibition of recombinant rat nNOS using [3H]L-arginine as substrate preincubated for 15 mins followed by NADPH addition measured after 20 mins in presence of FMN/FAD by liquid scintillation counting method.
Series [1] is described as follows: Selectivity ratio of IC50 for recombinant rat nNOS to IC50 for recombinant mouse iNOS.
Series [2] deals with Nitric oxide synthase, inducible (Rattus norvegicus) (UniProt Q06518). Kind of series: Ex vivo inhibition of iNOS in mesenteric vascular arteries isolated from LPS-induced septic shock Sprague-Dawley rat model assessed as increase in noradrenaline-mediated vasoconstriction by measuring changes in perfusion pressure at 0.06 uM preincubated for 30 mins followed by noradrenaline treatment.

A short description of series [3]: Cytotoxicity against rat CTX/TNA2 cells assessed as cell proliferation at 1 mM after 24 hrs by MTT assay relative to control. The series is classed as cell-based. The note with it: read-out: Activity.
The subject of series [4] is C6. The series is described as follows: Cytotoxicity against rat C6 cells assessed as cell proliferation at 1 mM after 24 hrs by MTT assay relative to control. The series is classed as functional. The note with it: C6, 24 h, read-out: Activity. Background: Tetrazolium assays rely on reduction of a dye to a coloured formazan, in cell work by metabolically active cells.

Series [5] deals with C6. The series is described as follows: Cytotoxicity against rat C6 cells assessed as cell proliferation at 1.5 mM after 24 hrs by MTT assay relative to control. The format is functional. The settings on record: C6, 24 h, read-out: Activity.
Series [6] concerns C6. Kind of series: Cytotoxicity against rat C6 cells assessed as cell proliferation at 2 mM after 24 hrs by MTT assay relative to control. The format is functional. The note with it: C6, 24 h, read-out: Activity.
The test system of series [7] is C6. The series is described as follows: Cytotoxicity against rat C6 cells assessed as inhibition of cell proliferation after 24 to 48 hrs by MTT assay. The series is classed as functional, cell-based.
The test system of series [8] is C6. Kind of series: Cytotoxicity against rat C6 cells assessed as cell proliferation at 1 mM after 72 hrs by MTT assay relative to control. The series is classed as functional. The note with it: C6, 72 h, read-out: Activity.
In series [9] the test system is C6. Kind of series: Cytotoxicity against rat C6 cells assessed as cell proliferation at 1.5 mM after 72 hrs by MTT assay relative to control. The series is classed as functional. The note with it: C6, 72 h, read-out: Activity.
Series [10] has as its system C6. Kind of series: Cytotoxicity against rat C6 cells assessed as LDH release at 0.25 mM after 72 hrs by CytoTox96 non-radioactive assay (reference value: 5.41%). The format is functional.
The subject of series [11] is C6. The series is described as follows: Cytotoxicity against rat C6 cells assessed as LDH release at 0.75 mM after 72 hrs by CytoTox96 non-radioactive assay (reference value: 5.41%). The format is functional. On the technique in general: LDH leaks from cells whose membrane has failed.
Series [12] has as its system C6. Kind of series: Cytotoxicity against rat C6 cells assessed as LDH release at 1.5 mM after 72 hrs by CytoTox96 non-radioactive assay (reference value: 5.41%). The series is classed as functional.
In series [13] the test system is C6. The series is described as follows: Cytotoxicity against rat C6 cells assessed as LDH release at 2 mM after 72 hrs by CytoTox96 non-radioactive assay (reference value: 5.41%). The format is functional.
Series [14] has as its system C6. The series is described as follows: Cell cycle arrest in rat C6 cells assessed as accumulation at G1 phase at 1.5 mM after 72 hrs by propidium iodide staining based flow cytometry (reference value: 63.97%). The format is functional. Background: In flow cytometry, cells or beads pass a laser one at a time.
A short description of series [15]: Half life in pH 2 HCl after 24 hrs by HPLC analysis. The format is physicochemical. The settings on record: HCl solution, pH 2, pH 2.
The nature of series [16]: Half life in pH 9 NaOH solution after 24 hrs by HPLC analysis. The settings on record: pH 9, pH 9. The series is classed as physicochemical.
Series [17] is described as follows: Half life in human plasma by HPLC analysis. The series is classed as ADME, cell-free.

Nitric oxide synthase 1, sequence (P29476 whole entry): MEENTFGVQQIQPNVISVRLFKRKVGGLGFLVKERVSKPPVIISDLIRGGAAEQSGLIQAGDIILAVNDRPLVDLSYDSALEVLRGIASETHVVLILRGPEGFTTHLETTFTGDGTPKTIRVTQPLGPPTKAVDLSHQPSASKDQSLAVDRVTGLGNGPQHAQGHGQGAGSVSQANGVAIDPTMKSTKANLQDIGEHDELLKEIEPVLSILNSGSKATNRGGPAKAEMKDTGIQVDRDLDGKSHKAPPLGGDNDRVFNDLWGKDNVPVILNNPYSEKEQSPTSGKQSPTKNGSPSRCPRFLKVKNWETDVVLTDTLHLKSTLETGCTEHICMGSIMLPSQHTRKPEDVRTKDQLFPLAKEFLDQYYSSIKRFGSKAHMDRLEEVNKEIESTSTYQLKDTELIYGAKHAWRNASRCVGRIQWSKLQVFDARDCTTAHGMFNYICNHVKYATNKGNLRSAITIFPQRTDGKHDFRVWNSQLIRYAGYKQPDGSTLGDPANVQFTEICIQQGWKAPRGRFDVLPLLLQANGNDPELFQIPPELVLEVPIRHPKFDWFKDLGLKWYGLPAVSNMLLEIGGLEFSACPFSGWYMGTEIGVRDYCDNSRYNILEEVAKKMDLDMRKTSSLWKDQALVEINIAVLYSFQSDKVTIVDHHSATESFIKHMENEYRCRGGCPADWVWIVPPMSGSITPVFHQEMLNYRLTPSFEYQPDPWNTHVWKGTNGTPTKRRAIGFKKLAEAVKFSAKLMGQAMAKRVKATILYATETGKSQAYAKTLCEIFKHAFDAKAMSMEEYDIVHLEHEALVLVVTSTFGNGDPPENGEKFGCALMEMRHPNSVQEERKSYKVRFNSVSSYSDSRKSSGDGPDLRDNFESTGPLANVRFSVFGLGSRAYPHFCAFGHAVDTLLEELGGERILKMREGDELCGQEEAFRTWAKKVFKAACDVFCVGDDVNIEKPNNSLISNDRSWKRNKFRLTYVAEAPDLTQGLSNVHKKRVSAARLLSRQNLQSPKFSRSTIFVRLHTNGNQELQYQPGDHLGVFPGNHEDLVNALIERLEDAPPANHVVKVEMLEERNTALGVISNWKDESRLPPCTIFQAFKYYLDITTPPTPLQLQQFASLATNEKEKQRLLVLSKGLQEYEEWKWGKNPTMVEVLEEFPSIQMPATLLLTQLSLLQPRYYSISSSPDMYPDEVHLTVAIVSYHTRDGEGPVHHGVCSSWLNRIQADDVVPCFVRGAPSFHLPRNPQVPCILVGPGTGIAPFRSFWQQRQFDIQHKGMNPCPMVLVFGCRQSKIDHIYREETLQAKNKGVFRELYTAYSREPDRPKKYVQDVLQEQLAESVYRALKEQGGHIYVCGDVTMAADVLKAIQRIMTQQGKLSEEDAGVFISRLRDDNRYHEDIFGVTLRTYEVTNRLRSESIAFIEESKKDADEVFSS
Nitric oxide synthase, inducible (Rattus norvegicus), sequence (Q06518 whole entry, the tested form may be a part): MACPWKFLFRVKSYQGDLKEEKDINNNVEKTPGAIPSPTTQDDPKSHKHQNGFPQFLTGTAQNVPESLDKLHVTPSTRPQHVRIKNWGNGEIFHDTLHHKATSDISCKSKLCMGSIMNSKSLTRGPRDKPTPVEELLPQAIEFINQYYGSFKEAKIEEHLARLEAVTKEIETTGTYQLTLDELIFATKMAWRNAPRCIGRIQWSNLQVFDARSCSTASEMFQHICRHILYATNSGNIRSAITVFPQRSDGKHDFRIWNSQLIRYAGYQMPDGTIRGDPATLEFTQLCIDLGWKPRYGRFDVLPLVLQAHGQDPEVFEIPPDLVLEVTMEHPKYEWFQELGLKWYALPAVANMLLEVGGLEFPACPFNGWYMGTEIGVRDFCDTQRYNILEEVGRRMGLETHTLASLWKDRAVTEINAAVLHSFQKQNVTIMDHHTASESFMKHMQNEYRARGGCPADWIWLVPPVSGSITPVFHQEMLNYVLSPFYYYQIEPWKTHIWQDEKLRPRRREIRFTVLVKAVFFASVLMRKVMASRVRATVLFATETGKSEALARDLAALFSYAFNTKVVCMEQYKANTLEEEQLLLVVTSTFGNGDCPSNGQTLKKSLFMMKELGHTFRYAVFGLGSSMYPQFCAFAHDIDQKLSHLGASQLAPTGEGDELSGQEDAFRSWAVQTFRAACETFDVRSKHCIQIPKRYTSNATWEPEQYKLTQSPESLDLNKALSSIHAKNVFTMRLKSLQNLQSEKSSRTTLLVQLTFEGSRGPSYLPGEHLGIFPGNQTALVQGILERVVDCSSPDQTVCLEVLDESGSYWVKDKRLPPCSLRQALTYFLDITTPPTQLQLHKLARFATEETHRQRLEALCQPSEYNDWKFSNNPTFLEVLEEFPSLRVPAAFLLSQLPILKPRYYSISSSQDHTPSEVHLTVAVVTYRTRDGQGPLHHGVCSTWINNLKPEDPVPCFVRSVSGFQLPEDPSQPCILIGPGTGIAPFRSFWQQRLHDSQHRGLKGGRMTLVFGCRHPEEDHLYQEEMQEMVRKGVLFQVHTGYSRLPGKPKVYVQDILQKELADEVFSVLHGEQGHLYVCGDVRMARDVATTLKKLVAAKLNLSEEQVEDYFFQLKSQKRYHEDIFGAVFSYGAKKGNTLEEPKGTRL

In the case of `CC(=N)NCc1cccc(CNC(=O)[C@@H]2CCCN2)c1.Cl.Cl`, the pIC50 at Nitric oxide synthase 1 was less than 5.00. In addition, the Ratio IC50 in [1] is more than 172. The inhibition entry in series [2] was “Active”. In addition, in series [3], the viability at 24 h, 1000 µM stood at 122%. The growth at 1000 µM came to 118% in the series with C6 [4] and 77.5% in the series with C6 [8]. For the same molecule, the growth at 1500 µM in the series on C6 [5] came to 114%; with C6 [9], 63.2%. In the series with C6 [6], the growth at 2000 µM is not above 89.5%. In addition, the inhibition entry with C6 [7] was “Dose-dependent effect”. For the same molecule, the Activity in the series on C6 [10] was 26.54%; in the series with C6 [11], 20.99%; in the series with C6 [12] it was 23.27%; in the series on C6 [13] it was “<=25.52%”; in the series on C6 [14], 71.79%. The half-life is more than 24 h in series [15], more than 24 h in [16] and 11 h in series [17].
